Results reported in patent US10988477B2 (Merck Patent GmbH, priority 2018, dated 2021).

Assays:
[1] = target: GCN2 kinase (Homo sapiens, UniProt Q9P2K8); assay: GCN2 enzyme inhibition assay (Transcreener ADP2 fluorescence polarization); format: biochemical; settings: 280 μM ATP
Method in brief: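 4 nM GCN2 + 200 μM (RS)7 + compound (0–8 μM), 10 min preinc.; start with ATP (280 μM final); 1 h, 25 °C; pH 7.5 Tris/NaCl/MgCl2/DTT; ADP FP readout; IC50, Ki(app) via tight-binding fit.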

[2] = target: intracellular GCN2 (phosphorylation of the GCN2 substrate eIF2α) (Homo sapiens, UniProt Q9P2K8); assay: GCN2 cellular inhibition assay (AlphaScreen SureFire P-eIF2α Ser51, borrelidin-treated U2OS cells); format: cell-based; settings: biomarker assay, phosphorylated eIF2α Ser51 in borrelidin-treated U2OS cells
Method in brief: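 Phospho-eIF2α (Ser51) in lysates was quantified by AlphaScreen SureFire after a 1 h, 37 °C treatment of U2OS cells with 10 μM borrelidin and compound at 4-fold dilutions starting from 40 μM final. Inhibition expressed in percent against wells stimulated by borrelidin alone.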

[3] = compounds of Formula II, 4 nM GCN2 kinase
[4] = Enzyme activity for compounds of Formula IV, Ki(app), 25° C.

Chain of intracellular GCN2 (phosphorylation of the GCN2 substrate eIF2α) (Q9P2K8 whole entry): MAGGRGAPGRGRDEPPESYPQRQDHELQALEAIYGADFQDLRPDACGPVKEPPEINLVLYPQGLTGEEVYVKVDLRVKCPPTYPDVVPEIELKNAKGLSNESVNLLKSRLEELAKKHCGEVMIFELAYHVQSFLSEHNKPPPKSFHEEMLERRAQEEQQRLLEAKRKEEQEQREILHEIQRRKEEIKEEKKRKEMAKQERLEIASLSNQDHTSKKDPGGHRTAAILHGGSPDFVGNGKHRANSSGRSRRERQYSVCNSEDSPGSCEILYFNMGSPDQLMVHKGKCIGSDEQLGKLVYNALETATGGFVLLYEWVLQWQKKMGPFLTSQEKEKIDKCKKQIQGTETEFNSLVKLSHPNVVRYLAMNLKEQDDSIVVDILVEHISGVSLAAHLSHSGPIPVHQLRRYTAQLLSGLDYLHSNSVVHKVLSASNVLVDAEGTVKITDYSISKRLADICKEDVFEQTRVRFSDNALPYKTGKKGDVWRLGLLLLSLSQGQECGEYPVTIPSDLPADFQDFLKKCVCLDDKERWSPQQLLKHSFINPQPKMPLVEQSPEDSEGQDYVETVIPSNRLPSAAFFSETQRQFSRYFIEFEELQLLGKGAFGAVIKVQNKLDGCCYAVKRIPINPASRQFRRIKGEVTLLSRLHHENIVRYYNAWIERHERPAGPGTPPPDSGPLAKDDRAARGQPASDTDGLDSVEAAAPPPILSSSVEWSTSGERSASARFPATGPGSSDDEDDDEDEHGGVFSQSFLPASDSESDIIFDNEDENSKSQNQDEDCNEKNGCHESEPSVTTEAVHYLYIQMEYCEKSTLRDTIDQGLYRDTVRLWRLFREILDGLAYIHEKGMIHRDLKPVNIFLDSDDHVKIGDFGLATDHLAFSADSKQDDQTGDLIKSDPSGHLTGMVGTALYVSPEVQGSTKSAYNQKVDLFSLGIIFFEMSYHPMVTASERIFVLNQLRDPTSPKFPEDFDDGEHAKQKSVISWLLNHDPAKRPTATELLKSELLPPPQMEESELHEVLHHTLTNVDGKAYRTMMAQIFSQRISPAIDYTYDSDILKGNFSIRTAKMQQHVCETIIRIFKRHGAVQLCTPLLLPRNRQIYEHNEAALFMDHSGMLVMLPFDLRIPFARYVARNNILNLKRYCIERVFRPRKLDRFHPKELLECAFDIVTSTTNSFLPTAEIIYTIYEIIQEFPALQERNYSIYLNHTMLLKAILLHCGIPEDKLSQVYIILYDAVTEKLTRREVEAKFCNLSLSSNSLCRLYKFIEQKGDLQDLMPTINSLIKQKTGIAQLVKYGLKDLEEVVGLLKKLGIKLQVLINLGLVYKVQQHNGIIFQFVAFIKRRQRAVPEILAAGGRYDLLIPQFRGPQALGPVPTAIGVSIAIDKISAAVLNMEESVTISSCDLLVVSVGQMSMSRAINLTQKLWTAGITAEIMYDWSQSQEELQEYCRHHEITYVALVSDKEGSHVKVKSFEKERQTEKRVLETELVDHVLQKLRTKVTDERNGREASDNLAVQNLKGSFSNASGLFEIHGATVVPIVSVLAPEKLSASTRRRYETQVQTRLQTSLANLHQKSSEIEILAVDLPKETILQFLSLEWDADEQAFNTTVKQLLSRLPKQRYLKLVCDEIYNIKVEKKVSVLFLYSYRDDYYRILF
Chain of GCN2 kinase (Q9P2K8 whole entry): as above

Row | SMILES | Ki [1, 3] | IC50 ([2]; compounds of Formula II) | Ki [1, 4] | IC50 ([2]; compounds of Formula IV)
1 | CS(=O)(=O)NCC1COCCN(c2cc(-c3cnc4ccc(C(F)(F)F)nn34)ccn2)C1 (centres unmarked) [II-232, N-((4-(4-(6-(Trifluoromethyl)imidazo[1,2-b]pyridazin-3-yl)pyridin-2-yl)-1,4-oxazepan-6-yl)methyl)methanesulfonamide] | 10 to 1000 nM | 500 to 5000 nM |  | 
2 | CC1C(CNS(C)(=O)=O)OCCN1c1cc(-c2cnc3ccc(C(F)F)nn23)ncn1 (centres unmarked) [II-346, N-((4-(6-(6-(Difluoromethyl)imidazo[1,2-b]pyridazin-3-yl)pyrimidin-4-yl)-3-methylmorpholin-2-yl)methyl)methanesulfonamide] | 10 to 1000 nM | > 5000 nM |  | 
3 | C[C@H]1[C@@H](CNS(C)(=O)=O)C(F)(F)[C@@H](C)CN1c1cc(-c2cnc3ccc(C(F)F)nn23)ncn1 (single isomer, unassigned) [II-472] | < 10 nM | < 500 nM |  | 
4 | CS(=O)(=O)NCC1CN(c2cc(-c3cnc4ccc(C(F)F)nn34)ncn2)CC(C2CC2)O1 (centres unmarked) [II-440, N-((6-Cyclopropyl-4-(6-(6-(difluoromethyl)imidazo[1,2-b]pyridazin-3-yl)pyrimidin-4-yl)morpholin-2-yl)methyl)methanesulfonamide] | 10 to 1000 nM | 500 to 5000 nM |  | 
5 | CC(=O)N1CCN(c2cc(-c3cnc4ccc(C(F)(F)F)nn34)ccn2)CC1 [II-223, 1-(4-(4-(6-(Trifluoromethyl)imidazo[1,2-b]pyridazin-3-yl)pyridin-2-yl)piperazin-1-yl)ethanone] | 10 to 1000 nM | > 5000 nM |  | 
6 | CS(=O)(=O)NC[C@@H]1CCCN(c2cc(-c3cnc4ccc(C(F)F)nn34)ccn2)C1 [II-155, (R)—N-((1-(4-(6-(Difluoromethyl)imidazo[1,2-b]pyridazin-3-yl)pyridin-2-yl)piperidin-3-yl)methyl)methanesulfonamide] | 10 to 1000 nM | 500 to 5000 nM |  | 
7 | CS(=O)(=O)NCC1CCCN(c2cc(-c3cnc4ccc(C#N)nn34)ncn2)C1 (centres unmarked) [II-692, N-[[1-[6-(6-Cyanoimidazo[1,2-b]pyridazin-3-yl)pyrimidin-4-yl]-3-piperidyl]methyl]methanesulfonamide] | 10 to 1000 nM | 500 to 5000 nM |  | 

The remaining lines, values ahead:

Row | Ki [1, 3] | IC50 ([2]; compounds of Formula II) | Ki [1, 4] | IC50 ([2]; compounds of Formula IV) | SMILES
8 |  |  | < 10 nM | < 500 nM | Fc1n[nH]cc1C1CCCN(c2ccnc(-c3cnc4cnc(C(F)(F)F)cn34)n2)C1 (single isomer, unassigned) [IV-491, 3-(4-(3-(3-Fluoro-1H-pyrazol-4-yl)piperidin-1-yl)pyrimidin-2-yl)-6-(trifluoromethyl)imidazo[1,2-a]pyrazine]
9 |  |  | 100 to 1000 nM | > 5000 nM | NS(=O)(=O)C1CCCN(c2ccnc(-c3cnc4cnc(C(F)F)cn34)n2)C1 (centres unmarked) [IV-56, 1-(2-(6-(Difluoromethyl)imidazo[1,2-a]pyrazin-3-yl)pyrimidin-4-yl)piperidine-3-sulfonamide]
10 |  |  | 10 to 100 nM | 500 to 5000 nM | CC(C)(O)C1CC(c2cn[nH]c2)CN(c2ccnc(-c3cnc4cnc(C(F)(F)F)cn34)n2)C1 (single isomer, unassigned) [IV-682, 2-(5-(1H-Pyrazol-4-yl)-1-(2-(6-(trifluoromethyl)imidazo[1,2-a]pyrazin-3-yl)pyrimidin-4-yl)piperidin-3-yl)propan-2-ol]
11 |  |  | < 10 nM | 500 to 5000 nM | OC1CCN(c2ccnc(-c3cnc4cnc(C(F)(F)F)cn34)n2)CC1c1cn[nH]c1 (single isomer, unassigned) [IV-622, 3-(1H-Pyrazol-4-yl)-1-(2-(6-(trifluoromethyl)imidazo[1,2-a]pyrazin-3-yl)pyrimidin-4-yl)piperidin-4-ol]
12 |  |  | 100 to 1000 nM | > 5000 nM | FC(F)(F)c1cn2c(-c3nccc(N4CCCC(c5cocn5)C4)n3)cnc2cn1 (centres unmarked) [IV-694, 4-(1-(2-(6-(Trifluoromethyl)imidazo[1,2-a]pyrazin-3-yl)pyrimidin-4-yl)piperidin-3-yl)oxazole]
13 |  |  | 100 to 1000 nM | > 5000 nM | CS(=O)(=O)NC[C@@H]1CN(c2nc(-c3cnc4cnc(C(F)F)cn34)ns2)CCO1 [IV-703, (S)—N-((4-(3-(6-(difluoromethyl)imidazo[1,2-a]pyrazin-3-yl)-1,2,4-thiadiazol-5-yl)morpholin-2-yl)methyl)methanesulfonamide]
